O=C(O)/C=C/c1ccccc1Cl
solubility (mole fraction) (in 2-butanone, 272.15 K): 0.00431 | solubility (mole fraction) (in 2-butanone, 278.45 K): 0.00535 | solubility (mole fraction) (in 2-butanone, 283.35 K): 0.00626 | solubility (mole fraction) (in 2-butanone, 288.35 K): 0.00733 | solubility (mole fraction) (in 2-butanone, 292.75 K): 0.00837 | solubility (mole fraction) (in 2-butanone, 297.75 K): 0.00968 | solubility (mole fraction) (in 2-butanone, 302.55 K): 0.0111 | solubility (mole fraction) (in 2-butanone, 307.05 K): 0.0126 | solubility (mole fraction) (in 2-butanone, 312.35 K): 0.0145 | solubility (mole fraction) (in 2-butanone, 317.05 K): 0.0164 | solubility (mole fraction) (in 2-butanone, 321.45 K): 0.0183 | solubility (mole fraction) (in 2-pentanone, 272.15 K): 0.00424 | solubility (mole fraction) (in 2-pentanone, 278.45 K): 0.00526 | solubility (mole fraction) (in 2-pentanone, 283.35 K): 0.00618 | solubility (mole fraction) (in 2-pentanone, 288.35 K): 0.00723 | solubility (mole fraction) (in 2-pentanone, 292.75 K): 0.00827 | solubility (mole fraction) (in 2-pentanone, 297.75 K): 0.0096 | solubility (mole fraction) (in 2-pentanone, 302.55 K): 0.011 | solubility (mole fraction) (in 2-pentanone, 307.05 K): 0.0125 | solubility (mole fraction) (in 2-pentanone, 312.35 K): 0.0144 | solubility (mole fraction) (in 2-pentanone, 317.05 K): 0.0163 | solubility (mole fraction) (in 2-pentanone, 321.45 K): 0.0182 | solubility (mole fraction) (in acetone, 272.15 K): 0.00376 | solubility (mole fraction) (in acetone, 278.45 K): 0.00474 | solubility (mole fraction) (in acetone, 283.35 K): 0.00563 | solubility (mole fraction) (in acetone, 288.35 K): 0.00668 | solubility (mole fraction) (in acetone, 292.75 K): 0.00771 | solubility (mole fraction) (in acetone, 297.75 K): 0.00907 | solubility (mole fraction) (in acetone, 302.55 K): 0.0105 | solubility (mole fraction) (in acetone, 307.05 K): 0.012 | solubility (mole fraction) (in acetone, 312.35 K): 0.014 | solubility (mole fraction) (in acetone, 317.05 K): 0.016 | solubility (mole fraction) (in acetone, 321.45 K): 0.0181 | solubility (mole fraction) (in acetonitrile, 272.15 K): 0.000253 | solubility (mole fraction) (in acetonitrile, 278.45 K): 0.000362 | solubility (mole fraction) (in acetonitrile, 283.35 K): 0.000474 | solubility (mole fraction) (in acetonitrile, 288.35 K): 0.000617 | solubility (mole fraction) (in acetonitrile, 292.75 K): 0.000773 | solubility (mole fraction) (in acetonitrile, 297.75 K): 0.000994 | solubility (mole fraction) (in acetonitrile, 302.55 K): 0.00125 | solubility (mole fraction) (in acetonitrile, 307.05 K): 0.00154 | solubility (mole fraction) (in acetonitrile, 312.35 K): 0.00195 | solubility (mole fraction) (in acetonitrile, 317.05 K): 0.0024 | solubility (mole fraction) (in acetonitrile, 321.45 K): 0.00289 | solubility (mole fraction) (in ethanol, 272.15 K): 0.00229 | solubility (mole fraction) (in ethanol, 278.45 K): 0.00295 | solubility (mole fraction) (in ethanol, 283.45 K): 0.0036 | solubility (mole fraction) (in ethanol, 288.35 K): 0.00431 | solubility (mole fraction) (in ethanol, 292.85 K): 0.00508 | solubility (mole fraction) (in ethanol, 298.15 K): 0.00614 | solubility (mole fraction) (in ethanol, 302.95 K): 0.00722 | solubility (mole fraction) (in ethanol, 307.35 K): 0.00833 | solubility (mole fraction) (in ethanol, 312.05 K): 0.00969 | solubility (mole fraction) (in ethanol, 316.55 K): 0.0112 | solubility (mole fraction) (in ethanol, 321.55 K): 0.013 | solubility (mole fraction) (in ethyl acetate, 272.15 K): 0.00231 | solubility (mole fraction) (in ethyl acetate, 278.45 K): 0.00294 | solubility (mole fraction) (in ethyl acetate, 283.35 K): 0.00351 | solubility (mole fraction) (in ethyl acetate, 288.35 K): 0.00417 | solubility (mole fraction) (in ethyl acetate, 292.75 K): 0.00484 | solubility (mole fraction) (in ethyl acetate, 297.75 K): 0.00571 | solubility (mole fraction) (in ethyl acetate, 302.55 K): 0.00665 | solubility (mole fraction) (in ethyl acetate, 307.05 K): 0.00764 | solubility (mole fraction) (in ethyl acetate, 312.35 K): 0.00894 | solubility (mole fraction) (in ethyl acetate, 317.05 K): 0.0102 | solubility (mole fraction) (in ethyl acetate, 321.45 K): 0.0116 | solubility (mole fraction) (in ethyl formate, 272.15 K): 0.000925 | solubility (mole fraction) (in ethyl formate, 278.45 K): 0.00124 | solubility (mole fraction) (in ethyl formate, 283.35 K): 0.00155 | solubility (mole fraction) (in ethyl formate, 288.35 K): 0.00193 | solubility (mole fraction) (in ethyl formate, 292.75 K): 0.00232 | solubility (mole fraction) (in ethyl formate, 297.75 K): 0.00285 | solubility (mole fraction) (in ethyl formate, 302.55 K): 0.00345 | solubility (mole fraction) (in ethyl formate, 307.05 K): 0.0041 | solubility (mole fraction) (in ethyl formate, 312.35 K): 0.00497 | solubility (mole fraction) (in ethyl formate, 317.05 K): 0.0059 | solubility (mole fraction) (in ethyl formate, 321.45 K): 0.00688 | solubility (mole fraction) (in isobutanol, 272.15 K): 0.0013 | solubility (mole fraction) (in isobutanol, 278.45 K): 0.00167 | solubility (mole fraction) (in isobutanol, 283.45 K): 0.00211 | solubility (mole fraction) (in isobutanol, 288.35 K): 0.00266 | solubility (mole fraction) (in isobutanol, 292.85 K): 0.00324 | solubility (mole fraction) (in isobutanol, 298.15 K): 0.00403 | solubility (mole fraction) (in isobutanol, 302.95 K): 0.00489 | solubility (mole fraction) (in isobutanol, 307.35 K): 0.00591 | solubility (mole fraction) (in isobutanol, 312.05 K): 0.00724 | solubility (mole fraction) (in isobutanol, 316.55 K): 0.00855 | solubility (mole fraction) (in isobutanol, 321.55 K): 0.0106 | solubility (mole fraction) (in isopentanol, 272.15 K): 0.00208 | solubility (mole fraction) (in isopentanol, 278.45 K): 0.00259 | solubility (mole fraction) (in isopentanol, 283.45 K): 0.00322 | solubility (mole fraction) (in isopentanol, 288.35 K): 0.00396 | solubility (mole fraction) (in isopentanol, 292.85 K): 0.00475 | solubility (mole fraction) (in isopentanol, 298.15 K): 0.0058 | solubility (mole fraction) (in isopentanol, 302.95 K): 0.00691 | solubility (mole fraction) (in isopentanol, 307.35 K): 0.00821 | solubility (mole fraction) (in isopentanol, 312.05 K): 0.00988 | solubility (mole fraction) (in isopentanol, 316.55 K): 0.0115 | solubility (mole fraction) (in isopentanol, 321.55 K): 0.014 | solubility (mole fraction) (in isopropanol, 272.15 K): 0.00181 | solubility (mole fraction) (in isopropanol, 278.45 K): 0.00245 | solubility (mole fraction) (in isopropanol, 283.45 K): 0.00309 | solubility (mole fraction) (in isopropanol, 288.35 K): 0.00385 | solubility (mole fraction) (in isopropanol, 292.85 K): 0.00468 | solubility (mole fraction) (in isopropanol, 298.15 K): 0.00585 | solubility (mole fraction) (in isopropanol, 302.95 K): 0.00712 | solubility (mole fraction) (in isopropanol, 307.35 K): 0.00848 | solubility (mole fraction) (in isopropanol, 312.05 K): 0.0101 | solubility (mole fraction) (in isopropanol, 316.55 K): 0.012 | solubility (mole fraction) (in isopropanol, 321.55 K): 0.0144 | solubility (mole fraction) (in methanol, 272.15 K): 0.00174 | solubility (mole fraction) (in methanol, 278.45 K): 0.00224 | solubility (mole fraction) (in methanol, 283.45 K): 0.00273 | solubility (mole fraction) (in methanol, 288.35 K): 0.00328 | solubility (mole fraction) (in methanol, 292.85 K): 0.00387 | solubility (mole fraction) (in methanol, 298.15 K): 0.00465 | solubility (mole fraction) (in methanol, 302.95 K): 0.00549 | solubility (mole fraction) (in methanol, 307.35 K): 0.0064 | solubility (mole fraction) (in methanol, 312.05 K): 0.00739 | solubility (mole fraction) (in methanol, 316.55 K): 0.00857 | solubility (mole fraction) (in methanol, 321.55 K): 0.01 | solubility (mole fraction) (in methyl acetate, 272.15 K): 0.00189 | solubility (mole fraction) (in methyl acetate, 278.45 K): 0.00244 | solubility (mole fraction) (in methyl acetate, 283.35 K): 0.00296 | solubility (mole fraction) (in methyl acetate, 288.35 K): 0.00358 | solubility (mole fraction) (in methyl acetate, 292.75 K): 0.00422 | solubility (mole fraction) (in methyl acetate, 297.75 K): 0.00505 | solubility (mole fraction) (in methyl acetate, 302.55 K): 0.00596 | solubility (mole fraction) (in methyl acetate, 307.05 K): 0.00694 | solubility (mole fraction) (in methyl acetate, 312.35 K): 0.00823 | solubility (mole fraction) (in methyl acetate, 317.05 K): 0.00956 | solubility (mole fraction) (in methyl acetate, 321.45 K): 0.0109 | solubility (mole fraction) (in n-butanol, 272.15 K): 0.00231 | solubility (mole fraction) (in n-butanol, 278.45 K): 0.00288 | solubility (mole fraction) (in n-butanol, 283.45 K): 0.00356 | solubility (mole fraction) (in n-butanol, 288.35 K): 0.00438 | solubility (mole fraction) (in n-butanol, 292.85 K): 0.00522 | solubility (mole fraction) (in n-butanol, 298.15 K): 0.00636 | solubility (mole fraction) (in n-butanol, 302.95 K): 0.00757 | solubility (mole fraction) (in n-butanol, 307.35 K): 0.00895 | solubility (mole fraction) (in n-butanol, 312.05 K): 0.0107 | solubility (mole fraction) (in n-butanol, 316.55 K): 0.0124 | solubility (mole fraction) (in n-butanol, 321.55 K): 0.0151 | solubility (mole fraction) (in n-pentanol, 272.15 K): 0.00268 | solubility (mole fraction) (in n-pentanol, 278.45 K): 0.0033 | solubility (mole fraction) (in n-pentanol, 283.45 K): 0.00404 | solubility (mole fraction) (in n-pentanol, 288.35 K): 0.00491 | solubility (mole fraction) (in n-pentanol, 292.85 K): 0.00583 | solubility (mole fraction) (in n-pentanol, 298.15 K): 0.00704 | solubility (mole fraction) (in n-pentanol, 302.95 K): 0.00832 | solubility (mole fraction) (in n-pentanol, 307.35 K): 0.00977 | solubility (mole fraction) (in n-pentanol, 312.05 K): 0.0116 | solubility (mole fraction) (in n-pentanol, 316.55 K): 0.0134 | solubility (mole fraction) (in n-pentanol, 321.55 K): 0.0162 | solubility (mole fraction) (in n-propanol, 272.15 K): 0.00202 | solubility (mole fraction) (in n-propanol, 278.45 K): 0.00267 | solubility (mole fraction) (in n-propanol, 283.45 K): 0.00332 | solubility (mole fraction) (in n-propanol, 288.35 K): 0.00408 | solubility (mole fraction) (in n-propanol, 292.85 K): 0.0049 | solubility (mole fraction) (in n-propanol, 298.15 K): 0.00602 | solubility (mole fraction) (in n-propanol, 302.95 K): 0.00723 | solubility (mole fraction) (in n-propanol, 307.35 K): 0.00848 | solubility (mole fraction) (in n-propanol, 312.05 K): 0.01 | solubility (mole fraction) (in n-propanol, 316.55 K): 0.0117 | solubility (mole fraction) (in n-propanol, 321.55 K): 0.0139 | solubility (mole fraction) (in toluene, 272.15 K): 0.000149 | solubility (mole fraction) (in toluene, 278.45 K): 0.000225 | solubility (mole fraction) (in toluene, 283.35 K): 0.000307 | solubility (mole fraction) (in toluene, 288.35 K): 0.000415 | solubility (mole fraction) (in toluene, 292.75 K): 0.000538 | solubility (mole fraction) (in toluene, 297.75 K): 0.000716 | solubility (mole fraction) (in toluene, 302.55 K): 0.000932 | solubility (mole fraction) (in toluene, 307.05 K): 0.00119 | solubility (mole fraction) (in toluene, 312.35 K): 0.00156 | solubility (mole fraction) (in toluene, 317.05 K): 0.00197 | solubility (mole fraction) (in toluene, 321.45 K): 0.00246
